Measurements: patent US11014911B2, “CDK2 inhibitors” (Pfizer Inc., priority 2019, dated 2021)

Experiments:
[1] = biological target: CDK2/Cyclin E1 full length (Homo sapiens (Human), UniProt P24941); assay: CDK2/Cyclin E1 full length mobility shift assay; format: biochemical
Protocol: Cdk2/Cyclin E1 Full Length Mobility Shift Assay
Wild-type CDK2/wild-type full length Cyclin E1 enzyme complex was produced in-house (baculoviral expression, LJIC-2080/LJIC-2103) and phosphorylated by CDK7/Cyclin H1/Matl enzyme complex with CDK2:CDK7 ratio of 50:1 (concentration mg/mL) in the presence of 10 mM MgCl2 and 5 mM ATP at room temperature for one hour. […] The assay was initiated with the addition of ATP, following a fifteen minutes pre-incubation of enzyme and inhibitor at room temperature in the reaction mixture. The reaction was stopped after 45 minutes at room temperature by the addition of 50 μL of 80 mM EDTA.

GSK3β (H350L) = GSK3β (H350L) (Homo sapiens (Human), UniProt P49841); settings: read-out: GSK3β Ki
Sequence of GSK3β (H350L) (P49841 whole entry, stated change not applied): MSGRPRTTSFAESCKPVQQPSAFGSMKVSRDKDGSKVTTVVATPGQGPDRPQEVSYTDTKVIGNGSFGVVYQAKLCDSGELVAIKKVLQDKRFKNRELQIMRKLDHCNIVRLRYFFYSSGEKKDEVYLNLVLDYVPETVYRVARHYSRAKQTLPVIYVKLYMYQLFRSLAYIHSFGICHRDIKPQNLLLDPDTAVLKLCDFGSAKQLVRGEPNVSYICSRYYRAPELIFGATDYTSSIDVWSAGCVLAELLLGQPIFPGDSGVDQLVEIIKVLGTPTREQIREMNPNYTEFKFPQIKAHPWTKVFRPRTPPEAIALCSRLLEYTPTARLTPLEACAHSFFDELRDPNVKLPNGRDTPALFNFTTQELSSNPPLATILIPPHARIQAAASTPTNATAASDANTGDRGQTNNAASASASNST
Protocol: The assay was initiated with the addition of ATP, following 15 minutes pre-incubation of enzyme and inhibitor at room temperature in the reaction mixture. The reaction was stopped after 30 minutes at room temperature by the addition of 50 μL of 80 mM EDTA.

Structure (SMILES) | Ki [1] | Ki (GSK3β (H350L))
CC[C@H](C)NC(=O)O[C@@H]1CC[C@H](c2cc(NC(=O)Cc3ccc(C(=O)N(C)C)cc3)n[nH]2)C1 [Example 364, (1R,3S)-3-[3-({[4-(dimethylcarbamoyl)-phenyl]acetyl}amino)-1H-pyrazol-5-yl]cyclopentyl (2S)-butan-2-ylcarbamate] | 0.82 nM | 59.9 nM
COc1ncc(CC(=O)Nc2cc([C@H]3CC[C@@H](OC(=O)NC4(C)CCOCC4)C3)[nH]n2)s1 [Example 509, (1R,3S)-3-(3-{[(2-methoxy-1,3-thiazol-5-yl)acetyl]amino}-1H-pyrazol-5-yl)cyclopentyl (4-methyltetrahydro-2H-pyran-4-yl)carbamate] | 0.5 nM | 30.2 nM
COc1cc(CC(=O)Nc2cc([C@H]3CC[C@@H](OC(=O)NC(C)C)C3)[nH]n2)ccn1 [Example 276, (1R,3S)-3-(3-{[(2-methoxypyridin-4-yl)acetyl]amino}-1H-pyrazol-5-yl)cyclopentyl propan-2-ylcarbamate] | 0.64 nM | 33.1 nM
COc1ccc(CC(=O)Nc2cc([C@H]3CC[C@@H](OC(=O)NC(C)(C)C)C3)[nH]n2)cn1 [Example 114] | 0.19 nM | 5.65 nM
CCCNC(=O)O[C@H]1CC[C@@H](c2cc(NC(=O)c3cc(C)nn3C)n[nH]2)C1 [Example 172, (1S,3R)-3-(3-{[(1,3-dimethyl-1H-pyrazol-5-yl)carbonyl]amino}-1H-pyrazol-5-yl)cyclopentyl propylcarbamate] | 1.2 nM | 102 nM
CC(C)NC(=O)O[C@@H]1CC[C@H](c2cc(NC(=O)Cc3cnn(C)c3)n[nH]2)C1 [Example 60] | 0.33 nM | 92.5 nM
Cc1cc(CC(=O)Nc2cc([C@H]3CC[C@@H](OC(=O)N4CCCC4(C)C)C3)[nH]n2)on1 [Example 134] | 0.12 nM | 7.12 nM
Cc1ccc(CC(=O)Nc2cc([C@@H]3CC[C@H](OC(=O)N[C@H]4CC[C@H](O)CC4)C3)[nH]n2)nc1 [Example 549, (1S,3R)-3-(3-{[(5-methylpyridin-2-yl)acetyl]amino}-1H-pyrazol-5-yl)cyclopentyl (trans-4-hydroxycyclohexyl)carbamate] | 0.9 nM | 3.24 nM
CC[C@H](C)NC(=O)O[C@@H]1CC[C@H](c2cc(NC(=O)Cc3ccc4c(cnn4C)c3)n[nH]2)C1 [Example 48] | 0.17 nM | 9.58 nM
CC[C@H](C)NC(=O)O[C@@H]1CC[C@H](c2cc(NC(=O)Cc3ccccc3S(=O)(=O)CC)n[nH]2)C1 [Example 40] | 0.24 nM | 64.5 nM
CC[C@H](C)NC(=O)O[C@@H]1CC[C@H](c2cc(NC(=O)Cc3scnc3C)n[nH]2)C1 [Example 342, (1R,3S)-3-(3-{[(4-methyl-1,3-thiazol-5-yl)acetyl]amino}-1H-pyrazol-5-yl)cyclopentyl (2S)-butan-2-ylcarbamate] | 0.74 nM | 40 nM
CC1(NC(=O)O[C@@H]2CC[C@H](c3cc(NC(=O)Cc4ccc(Cl)cn4)n[nH]3)C2)CC1 [Example 437, (1R,3S)-3-(3-{[(5-chloropyridin-2-yl)acetyl]amino}-1H-pyrazol-5-yl)cyclopentyl (1-methylcyclopropyl)carbamate] | 0.51 nM | 15.9 nM
CC[C@H](C)NC(=O)O[C@@H]1CC[C@H](c2cc(NC(=O)Cc3cc(C)on3)n[nH]2)C1 [Example 332, (1R,3S)-3-(3-{[(5-methyl-1,2-oxazol-3-yl)acetyl]amino}-1H-pyrazol-5-yl)cyclopentyl (2S)-butan-2-ylcarbamate] | 1.05 nM | 61.3 nM
CCCCNC(=O)O[C@H]1CC[C@@H](c2cc(NC(=O)Cc3ccno3)n[nH]2)C1 [Example 258, (1S,3R)-3-{3-[(1,2-oxazol-5-ylacetyl)amino]-1H-pyrazol-5-yl}cyclopentyl butylcarbamate] | 0.74 nM | 10.7 nM
CC1(NC(=O)O[C@@H]2CC[C@H](c3cc(NC(=O)Cc4ccno4)n[nH]3)C2)CC1 [Example 128] | 0.15 nM | 55.4 nM
CC[C@H](C)NC(=O)O[C@@H]1CC[C@H](c2cc(NC(=O)c3ccnn3C)n[nH]2)C1 [Example 42] | 0.05 nM | 34.4 nM
Cc1cc(CC(=O)Nc2cc([C@@H]3CC[C@H](OC(=O)N[C@H]4CC[C@@H](O)CC4)C3)[nH]n2)ccn1 [Example 544, (1S,3R)-3-(3-{[(2-methylpyridin-4-yl)acetyl]amino}-1H-pyrazol-5-yl)cyclopentyl (cis-4-hydroxycyclohexyl)carbamate] | 0.54 nM | 1.96 nM
CC[C@H](C)NC(=O)O[C@@H]1CC[C@H](c2cc(NC(=O)Cc3cncc(C)n3)n[nH]2)C1 [Example 336, (1R,3S)-3-(3-{[(6-methylpyrazin-2-yl)acetyl]amino}-1H-pyrazol-5-yl)cyclopentyl (2S)-butan-2-ylcarbamate] | 0.39 nM | 53.5 nM
Cc1cc(CC(=O)Nc2cc([C@H]3CC[C@@H](OC(=O)N4CCC4(C)C)C3)[nH]n2)on1 [Example 12, (1R,3S)-3-(3-{[(3-methyl-1,2-oxazol-5-yl)acetyl]amino}-1H-pyrazol-5-yl)cyclopentyl 2,2-dimethylazetidine-1-carboxylate] | 0.13 nM | 4.86 nM
CC(C)NC(=O)O[C@H]1CC[C@@H](c2cc(NC(=O)Cc3ccno3)n[nH]2)C1 [Example 263, (1S,3R)-3-{3-[(1,2-oxazol-5-ylacetyl)amino]-1H-pyrazol-5-yl}cyclopentyl propan-2-ylcarbamate] | 0.52 nM | 31.9 nM

More lines, now with the values ahead:

Ki [1] | Ki (GSK3β (H350L)) | Structure (SMILES)
0.49 nM | 10.6 nM | Cc1cc(CC(=O)Nc2cc([C@H]3CC[C@@H](OC(=O)N(C)C(C)C)C3)[nH]n2)on1 [Example 289, (1R,3S)-3-(3-{[(3-methyl-1,2-oxazol-5-yl)acetyl]amino}-1H-pyrazol-5-yl)cyclopentyl methyl(propan-2-yl)carbamate]
1.37 nM | 10.3 nM | Cc1cc(CC(=O)Nc2cc([C@H]3CC[C@@H](OC(=O)N4CCOC[C@@H]4C)C3)[nH]n2)on1 [Example 642, (1R,3S)-3-(3-{[(3-methyl-1,2-oxazol-5-yl)acetyl]amino}-1H-pyrazol-5-yl)cyclopentyl (3S)-3-methylmorpholine-4-carboxylate]
0.44 nM | 9.32 nM | CCCNC(=O)O[C@@H]1CC[C@H](c2cc(NC(=O)Cc3ccc(OC)nc3)n[nH]2)C1 [Example 188, (1R,3S)-3-(3-{[(6-methoxypyridin-3-yl)acetyl]amino}-1H-pyrazol-5-yl)cyclopentyl propylcarbamate]
0.59 nM | 14.4 nM | Cc1cc(CC(=O)Nc2cc([C@H]3CC[C@@H](OC(=O)N4CCCC[C@H]4C)C3)[nH]n2)on1 [Example 641, (1R,3S)-3-(3-{[(3-methyl-1,2-oxazol-5-yl)acetyl]amino}-1H-pyrazol-5-yl)cyclopentyl (2R)-2-methylpiperidine-1-carboxylate]
1.02 nM | 107 nM | CC[C@H](C)NC(=O)O[C@@H]1CC[C@H](c2cc(NC(=O)Cc3cncn3C)n[nH]2)C1 [Example 329, (1R,3S)-3-(3-{[(1-methyl-1H-imidazol-5-yl)acetyl]amino}-1H-pyrazol-5-yl)cyclopentyl (2S)-butan-2-ylcarbamate]
2.63 nM | 40.9 nM | Cc1coc(CC(=O)Nc2cc([C@H]3CC[C@@H](OC(=O)NC(C)C)C3)[nH]n2)n1 [Example 272, (1R,3S)-3-(3-{[(4-methyl-1,3-oxazol-2-yl)acetyl]amino}-1H-pyrazol-5-yl)cyclopentyl propan-2-ylcarbamate]
1.1 nM | 21.4 nM | CCCNC(=O)O[C@@H]1CC[C@H](c2cc(NC(=O)Cc3cc(C)no3)n[nH]2)C1 [Example 178, (1R,3S)-3-(3-{[(3-methyl-1,2-oxazol-5-yl)acetyl]amino}-1H-pyrazol-5-yl)cyclopentyl propylcarbamate]
0.37 nM | 10.1 nM | COc1ccc(CC(=O)Nc2cc([C@@H]3CC[C@H](OC(=O)N[C@H]4CC[C@@](C)(O)CC4)C3)[nH]n2)cc1 [Example 564, (1S,3R)-3-(3-{[(4-methoxyphenyl)acetyl]amino}-1H-pyrazol-5-yl)cyclopentyl (cis-4-hydroxy-4-methylcyclohexyl)carbamate]
0.6 nM | 9.84 nM | C[C@]1(O)CC[C@@H](NC(=O)O[C@H]2CC[C@@H](c3cc(NC(=O)Cc4ccc(F)cc4)n[nH]3)C2)CC1 [Example 560, (1S,3R)-3-(3-{[(4-fluorophenyl)acetyl]amino}-1H-pyrazol-5-yl)cyclopentyl (cis-4-hydroxy-4-methylcyclohexyl)carbamate]
0.85 nM | > 95.3 nM | Cn1nncc1C(=O)Nc1cc([C@H]2CC[C@@H](OC(=O)NC(C)(C)C)C2)[nH]n1 [Example 293, (1R,3S)-3-(3-{[(1-methyl-1H-1,2,3-triazol-5-yl)carbonyl]amino}-1H-pyrazol-5-yl)cyclopentyl tert-butylcarbamate]
4.59 nM | 23.9 nM | CCCNC(=O)O[C@@H]1CC[C@H](c2cc(NC(=O)Cc3ccc(OC)cn3)n[nH]2)C1 (stereo in doubt) [Example 187, (1R,3S)-3-(3-{[(5-methoxypyridin-2-yl)acetyl]amino}-1H-pyrazol-5-yl)cyclopentyl propylcarbamate]
1.15 nM | 9.44 nM | CCN(C)C(=O)O[C@@H]1CC[C@H](c2cc(NC(=O)Cc3cnc(C)s3)n[nH]2)C1 [Example 239, (1R,3S)-3-(3-{[(2-methyl-1,3-thiazol-5-yl)acetyl]amino}-1H-pyrazol-5-yl)cyclopentyl ethyl(methyl)carbamate]
1.08 nM | 2.28 nM | COc1ccc(CC(=O)Nc2cc([C@@H]3CC[C@H](OC(=O)N[C@H]4CC[C@](C)(O)CC4)C3)[nH]n2)cn1 [Example 571, (1S,3R)-3-(3-{[(6-methoxypyridin-3-yl)acetyl]amino}-1H-pyrazol-5-yl)cyclopentyl (trans-4-hydroxy-4-methylcyclohexyl)carbamate]
0.32 nM | 53.2 nM | CC(C)NC(=O)O[C@@H]1CC[C@H](c2cc(NC(=O)Cc3cc(F)cc(F)c3)n[nH]2)C1 [Example 279, (1R,3S)-3-(3-{[(3,5-difluorophenyl)acetyl]amino}-1H-pyrazol-5-yl)cyclopentyl propan-2-ylcarbamate]
